We go through 1 compound from patent publication US8394395B2, “Use of a cosmetic composition for the care of fatty skin” (Laboratories Clarins, priority 2006, dated 2013).

The subject of data set [1] is human sebocytes (Hs 917.T, ATCC line No. CRL-7669). Briefly: Sebocyte proliferation, M.T.T. colorimetric test. Conditions: 72 hours of culture, versus reference medium. In kind it is cell-based. Here is the method:
A line of human sebocytes (Hs 917.T, ATCC line No. CRL-7669) was cultured in Dulbecco's modified Eagle's medium with 4.5 g/l of D-glucose and 10% of fetal calf serum. These adherent cells have a polygonal morphology and large nuclei.
Proliferation was evaluated by means of a validated colorimetric test, the M.T.T. test (dimethyl thiazolyl diphenyl tetrazolium) (according to Mosmann, J. Immunol. Meth. 1983 65: 55-63). This compound is metabolized by the mitochondria, to give blue formazan crystals, the amount of which depends directly on the activity of the mitochondrial succinate dehydrogenase enzyme and on the number of living cells.
As a result of this, the proliferation is measured by colorimetery (570 nm).
The proliferation was therefore evaluated according to the following conditions: • sebocytes in reference medium; • sebocytes cultured in the presence of the reference medium supplemented with chrysin at the 2 concentrations of 10^−3% and 5×10^−3%.
For each condition performed in sextuplet, the proliferation was analyzed after 72 hours of culture.

Data set [2] shares this test system. Briefly: Sebocyte viability (MTT exclusion test). The note with it: chrysin concentrations of 10^−3% and 5×10^−3%; compared with conventional culture medium. In kind it is cell-based. As for the experimental part: A line of human sebocytes (Hs 917.T, ATCC line No. CRL-7669) was cultured in Dulbecco's modified Eagle's medium with 4.5 g/l of D-glucose and 10% of fetal calf serum. These adherent cells have a polygonal morphology and large nuclei. Firstly, we verified the viability (MTT exclusion test) of the sebocytes in the presence of chrysin at various concentrations, in comparison with their conventional culture medium.
For orientation: Tetrazolium dyes change colour on reduction, which living cells bring about.

Take `O=c1cc(-c2ccccc2)oc2cc(O)cc(O)c12` [chrysin, 5,7-dihydroxyflavone]: the entries for the “difference in proliferation of human sebocytes in culture” value in data set [1] (chrysin concentration 5×10^−3%) and in data set [1] (chrysin concentration 10^−3%) were −18.4% and −10.5%, respectively. In addition, the “cytotoxicity on sebocytes (viability)” value in data set [2] was “did not induce any cytotoxicity”.
